Assay results: publication PMC8348110, “A Novel Peptide Derived from the Transmembrane Domain of Romo1 Is a Promising Candidate for Sepsis Treatment and Multidrug-Resistant Bacteria” (International Journal of Molecular Sciences, 2021)
Converted amounts (≈) assume the structure as drawn. Residues, ends and D or L forms follow the SMILES beside them.

Columns and labels:
[1] = system: Pseudomonas aeruginosa ATCC 27853; type: cell-based; details: ATCC 27853, 1 h
Protocol: (§1) The minimum bactericidal concentration (MBC) was determined as previously described with minor modifications. Briefly, bacteria were cultured in the mid-log phase and diluted to 5 × 10^5 colony-forming unit (CFU)/mL in 10 mM sodium phosphate buffer (pH 7.4) with a 1% volume of TS broth. They were incubated for 1 h with various peptides which were two-fold diluted serially from 64 μg/mL to 0 μg/mL concentrations in a 96-well plate. The samples were inoculated TS agar plate and incubated overnight at 37 °C. The value of MBC was determined at the lowest concentrations at which no colonies were identified.
(§2) We used the CFU counting method to measure antibacterial activity, with all bacteria cultured to the mid-log phase in an appropriate broth medium. Bacterial CFUs were counted after overnight culture at 37 °C on TS or LB agar plates. The MBC value and antibacterial activity in blood components were determined as previously described. Mouse and human whole blood were collected and diluted with PBS (pH 7.4) to measure the ex vivo antibacterial activity of AMPR-22. For that test, AMPR-22 (10 μg) was added to each whole blood solution and incubated at 37 °C with shaking at 200 rpm. At each time point, it was incubated with bacteria (1 × 10^3 CFU) for 30 min. Each sample was inoculated on an LB agar plate, and CFU counting was performed. To measure the in vivo activity of AMPR-22, 1 × 10^8 CFU of bacteria were injected into BALB/c mice, and an hour later, 10 mg/kg of the test peptides were injected. Blood samples were collected by tail cut, serially diluted with PBS (pH 7.4), and inoculated on LB-agar plates, followed by CFU counting. To estimate the functional half-life of AMPR-22, 40 mg/kg of each tested peptide were injected into mice. Whole blood sampling was performed by cardiac puncture, and the plasma was isolated by centrifugation (2000× g, 15 min). The isolated plasma was incubated with bacteria (1 × 10^3 CFU) for an hour, and then the CFU counting method was performed.

[2] = system: Staphylococcus aureus ATCC 29213; type: cell-based; details: ATCC 29213, 1 h, pH 7.4
Protocol: as §1, §2

[3] = system: Methicillin-resistant S. aureus (MRSA) ATCC 33591; type: cell-based, Staphylococcus aureus; details: ATCC 33591, 1 h
Protocol: as §1, §2

[4] = system: Carbapenem-resistant P. aeruginosa (CRPA), clinical isolate; type: cell-based, Pseudomonas aeruginosa; details: 1 h
Description: Acinetobacter baumannii (ATCC 19606), B. subtilis (ATCC 6633), E. aerogenes (ATCC 13048), E. coli (ATCC 25922), E. faecalis (ATCC 19433), E. faecium (ATCC 19434), K. pneumoniae (ATCC 13883), P. aeruginosa (ATCC 27853), S. aureus (ATCC 29213), S. sindenensis (ATCC 23963), and MRSA (ATCC 33591) were purchased from the American Type Culture Collection (ATCC; Gaithersburg, MD, USA). Streptococcus pneumoniae (NCCP 14585), vancomycin-resistant E. faecium (NCCP 11522), and vancomycin-resistant S. aureus (NCCP 15872) were purchased from the National Culture Collection for Pathogens (NCCP; Cheongju, Korea). The isolation and use of carbapenem-resistant bacterial strains from a patient were approved (2015AN0129) by the Institutional Review Board (IRB) of Korea University Hospital. CRPA, CRKP, and CRAB were clinically isolated in Korea University Hospital (Seoul, Korea). CRPA was confirmed to be resistant to piperacillin, piperacillin-tazobactam, ceftazidime, imipenem, meropenem, gentamicin, amikacin, and ciprofloxacin. CRAB was confirmed to be resistant to piperacillin, piperacillin-tazobactam, cefepime, ceftazidime, imipenem, meropenem, gentamicin, amikacin, and ciprofloxacin. CRKP was confirmed to be resistant to piperacillin-tazobactam, cefepime, ceftazidime, imipenem, gentamicin, and ciprofloxacin. All strains were stored at –80 °C in 50% glycerol and 50% Luria-Bertani (LB) or tryptic soy (TS) broth, grown on LB or TS plates, and aerated at 37 °C.
as §1, §2

| SMILES | MBC Value, P. aeruginosa [1] [mg/L] | MBC Value, S. aureus [2] [mg/L] | MBC Value, MRSA [3] [mg/L] | MBC Value, CRPA [4] [mg/L] |
| --- | --- | --- | --- | --- |
| CC[C@H](C)[C@H](NC(=O)CNC(=O)[C@H](CCSC)NC(=O)CNC(=O)[C@@H](NC(=O)[C@H](C)NC(=O)[C@H](CCSC)NC(=O)[C@H](Cc1ccccc1)NC(=O)[C@@H](NC(=O)[C@H](Cc1ccccc1)NC(=O)[C@H](CCCCN)NC(=O)CNC(=O)CNC(=O)[C@H](CCCCN)NC(=O)[C@H](CCCCN)NC(=O)[C@H](CCSC)NC(=O)[C@H](CCSC)NC(=O)[C@H](CCCCN)NC(=O)[C@@H](N)CCCCN)[C@@H](C)O)[C@@H](C)CC)C(=O)N[C@@H](CCCNC(=N)N)C(=O)O [d68G] (H-KKMMKKGGKFTFMAIGMGIR-OH) | 4 (≈ 1.77 µM) | 4 (≈ 1.77 µM) | 4 (≈ 1.77 µM) | 8 (≈ 3.54 µM) |
| CC[C@H](C)[C@H](NC(=O)CNC(=O)[C@H](CCSC)NC(=O)CNC(=O)[C@@H](NC(=O)[C@H](C)NC(=O)[C@H](CCSC)NC(=O)[C@H](Cc1ccccc1)NC(=O)[C@@H](NC(=O)CNC(=O)[C@H](Cc1ccccc1)NC(=O)[C@H](CCCCN)NC(=O)CNC(=O)CNC(=O)[C@H](CCCCN)NC(=O)[C@H](CCCCN)NC(=O)[C@H](CCSC)NC(=O)[C@H](CCCCN)NC(=O)[C@@H](N)CCCCN)[C@@H](C)O)[C@@H](C)CC)C(=O)N[C@@H](CCCNC(=N)N)C(=O)O [d60M] (H-KKMKKGGKFGTFMAIGMGIR-OH) | 2 (≈ 0.915 µM) | 4 (≈ 1.83 µM) | 1 (≈ 0.457 µM) | 4 (≈ 1.83 µM) |
| CC[C@H](C)[C@H](NC(=O)CNC(=O)[C@H](CCSC)NC(=O)CNC(=O)[C@@H](NC(=O)[C@H](C)NC(=O)[C@H](CCSC)NC(=O)[C@H](Cc1ccccc1)NC(=O)[C@@H](NC(=O)CNC(=O)[C@H](Cc1ccccc1)NC(=O)[C@H](CCCCN)NC(=O)CNC(=O)[C@H](CCCCN)NC(=O)[C@H](CCCCN)NC(=O)[C@H](CCSC)NC(=O)[C@H](CCSC)NC(=O)[C@H](CCCCN)NC(=O)[C@@H](N)CCCCN)[C@@H](C)O)[C@@H](C)CC)C(=O)N[C@@H](CCCNC(=N)N)C(=O)O [d64G] (H-KKMMKKGKFGTFMAIGMGIR-OH) | 2 (≈ 0.885 µM) | 2 (≈ 0.885 µM) | 1 (≈ 0.442 µM) | 4 (≈ 1.77 µM) |
| CC[C@H](C)[C@H](NC(=O)CNC(=O)[C@H](CCSC)NC(=O)CNC(=O)[C@@H](NC(=O)[C@H](C)NC(=O)[C@H](CCSC)NC(=O)[C@H](Cc1ccccc1)NC(=O)[C@@H](NC(=O)CNC(=O)[C@H](Cc1ccccc1)NC(=O)[C@@H](NC(=O)CNC(=O)CNC(=O)[C@H](CCCCN)NC(=O)[C@H](CCCCN)NC(=O)[C@H](CCSC)NC(=O)[C@H](CCSC)NC(=O)[C@H](CCCCN)NC(=O)[C@@H](N)CCCCN)[C@@H](C)O)[C@@H](C)O)[C@@H](C)CC)C(=O)N[C@@H](CCCNC(=N)N)C(=O)O [K3] (H-KKMMKKGGTFGTFMAIGMGIR-OH) | 8 (≈ 3.49 µM) | 16 (≈ 6.98 µM) | 32 (≈ 14 µM) | 8 (≈ 3.49 µM) |
| CC[C@H](C)[C@H](NC(=O)CNC(=O)[C@H](CCSC)NC(=O)CNC(=O)[C@@H](NC(=O)[C@H](C)NC(=O)[C@H](CCSC)NC(=O)[C@H](Cc1ccccc1)NC(=O)[C@@H](NC(=O)CNC(=O)[C@H](Cc1ccccc1)NC(=O)[C@H](CCCCN)NC(=O)CNC(=O)CNC(=O)[C@H](CCCCN)NC(=O)[C@H](CCSC)NC(=O)[C@H](CCSC)NC(=O)[C@H](CCCCN)NC(=O)[C@@H](N)CCCCN)[C@@H](C)O)[C@@H](C)CC)C(=O)N[C@@H](CCCNC(=N)N)C(=O)O [d62K] (H-KKMMKGGKFGTFMAIGMGIR-OH) | 2 (≈ 0.913 µM) | 8 (≈ 3.65 µM) | 8 (≈ 3.65 µM) | 8 (≈ 3.65 µM) |
| CC[C@H](C)[C@H](NC(=O)CNC(=O)[C@H](CCSC)NC(=O)CNC(=O)[C@@H](NC(=O)[C@H](C)NC(=O)[C@H](CCSC)NC(=O)[C@@H](NC(=O)CNC(=O)[C@H](Cc1ccccc1)NC(=O)[C@H](CCCCN)NC(=O)CNC(=O)CNC(=O)[C@H](CCCCN)NC(=O)[C@H](CCCCN)NC(=O)[C@H](CCSC)NC(=O)[C@H](CCSC)NC(=O)[C@H](CCCCN)NC(=O)[C@@H](N)CCCCN)[C@@H](C)O)[C@@H](C)CC)C(=O)N[C@@H](CCCNC(=N)N)C(=O)O [d70F] (H-KKMMKKGGKFGTMAIGMGIR-OH) | 128 (≈ 59 µM) |  | 128 (≈ 59 µM) | >256 |
| CC[C@H](C)[C@H](NC(=O)CNC(=O)[C@H](CCSC)NC(=O)[C@@H](NC(=O)[C@H](C)NC(=O)[C@H](CCSC)NC(=O)[C@H](Cc1ccccc1)NC(=O)[C@@H](NC(=O)CNC(=O)[C@H](Cc1ccccc1)NC(=O)[C@H](CCCCN)NC(=O)CNC(=O)CNC(=O)[C@H](CCCCN)NC(=O)[C@H](CCCCN)NC(=O)[C@H](CCSC)NC(=O)[C@H](CCSC)NC(=O)[C@H](CCCCN)NC(=O)[C@@H](N)CCCCN)[C@@H](C)O)[C@@H](C)CC)C(=O)N[C@@H](CCCNC(=N)N)C(=O)O [d74G] (H-KKMMKKGGKFGTFMAIMGIR-OH) | 4 (≈ 1.77 µM) | 4 (≈ 1.77 µM) | 4 (≈ 1.77 µM) | 8 (≈ 3.54 µM) |
| CC[C@H](C)[C@H](NC(=O)CNC(=O)[C@H](CCSC)NC(=O)CNC(=O)[C@@H](NC(=O)[C@H](C)NC(=O)[C@H](CCSC)NC(=O)[C@H](Cc1ccccc1)NC(=O)CNC(=O)[C@H](Cc1ccccc1)NC(=O)[C@H](CCCCN)NC(=O)CNC(=O)CNC(=O)[C@H](CCCCN)NC(=O)[C@H](CCCCN)NC(=O)[C@H](CCSC)NC(=O)[C@H](CCSC)NC(=O)[C@H](CCCCN)NC(=O)[C@@H](N)CCCCN)[C@@H](C)CC)C(=O)N[C@@H](CCCNC(=N)N)C(=O)O [d69T] (H-KKMMKKGGKFGFMAIGMGIR-OH) | 4 (≈ 1.8 µM) | 2 (≈ 0.902 µM) | 1 (≈ 0.451 µM) | 4 (≈ 1.8 µM) |
| CC[C@H](C)[C@H](NC(=O)CNC(=O)[C@H](CCSC)NC(=O)CNC(=O)[C@@H](NC(=O)[C@H](C)NC(=O)[C@H](CCSC)NC(=O)[C@H](Cc1ccccc1)NC(=O)[C@@H](NC(=O)CNC(=O)[C@H](Cc1ccccc1)NC(=O)[C@@H](NC(=O)CNC(=O)CNC(=O)[C@H](CO)NC(=O)[C@H](CCCCN)NC(=O)[C@H](CCSC)NC(=O)[C@H](CCSC)NC(=O)[C@H](CCCCN)NC(=O)[C@@H](N)CCCCN)[C@@H](C)O)[C@@H](C)O)[C@@H](C)CC)C(=O)N[C@@H](CCCNC(=N)N)C(=O)O [K2] (H-KKMMKSGGTFGTFMAIGMGIR-OH) | 16 (≈ 7.11 µM) | 32 (≈ 14.2 µM) | 64 (≈ 28.4 µM) | 16 (≈ 7.11 µM) |
| CC[C@H](C)[C@H](NC(=O)CNC(=O)[C@H](CCSC)NC(=O)CNC(=O)[C@H](C)NC(=O)[C@H](CCSC)NC(=O)[C@H](Cc1ccccc1)NC(=O)[C@@H](NC(=O)CNC(=O)[C@H](Cc1ccccc1)NC(=O)[C@H](CCCCN)NC(=O)CNC(=O)CNC(=O)[C@H](CCCCN)NC(=O)[C@H](CCCCN)NC(=O)[C@H](CCSC)NC(=O)[C@H](CCSC)NC(=O)[C@H](CCCCN)NC(=O)[C@@H](N)CCCCN)[C@@H](C)O)C(=O)N[C@@H](CCCNC(=N)N)C(=O)O [d73I] (H-KKMMKKGGKFGTFMAGMGIR-OH) | >256 |  | >256 | >256 |
